Experimental findings from US10092537B2, “Use for PAI-1 inhibitor” (RENASCIENCE CO., LTD., priority 2013, dated 2018) are described below.

The subject of series [1] is CML cells (32Dp210-GFP cells). In words: Chronic myelogenous leukemia model mice, imatinib and compound c (Experimental Example 12). The series is classed as in vivo. The procedure: Chronic myelogenous leukemia model mice prepared in the same manner as in Experimental Example 11 were divided into the following 3 groups (each group: n=10), and the groups were administered respective test drugs in accordance with the protocol shown in FIG. 15A.
(§1) Group 1: placebo group (physiological saline was administered via gavage)
Group 2: imatinib group (imatinib [150 mg/kg/day] was administered via gavage)
Group 3: imatinib+compound c group (imatinib [150 mg/kg/day] and compound c [10 mg/kg/day] were administered via gavage)
8 days (day 8) after the day on which CML cells (32Dp210-GFP cells) were intravenously inoculated (day 0), administration of the test drugs to the groups was started. The placebo group and the imatinib group were administered the respective test drugs once a day from day 8 to day 14 (7 doses in total). The imatinib+compound c group was administered imatinib once a day from day 8 to day 14 (7 doses in total), and also administered compound c once a day from day 8 to day 14 (7 doses in total).

Series [2] deals with HER2-positive human ovarian cancer cell lines SKOV3. Nature of the series: SKOV3 ovarian cancer subcutaneous tumor, Herceptin and compound c (Experimental Example 18). In kind it is in vivo, BALB/c-nude mice. The note with it: Herceptin 5 mg/kg i.p. once + compound c 10 mg/kg/day oral (day 0-4, day 7-11); 45 days after administration. The procedure:
HER2-positive human ovarian cancer cell lines SKOV3 (5×10^6) were subcutaneously inoculated into BALB/c-nude mice. For better cell engraftment, the mice were intraperitoneally administered 25 μl of anti-Asialo GM1 antibody (Wako Pure Chemical Industries, Ltd., Code No. 014-09801) 2 days and 1 day before the cancer cell inoculation. […] The group to which Herceptin and compound c were administered in combination is referred to as “compound c-combined group”, and the group to which Herceptin and physiological saline were administered in combination is referred to as “compound c-non-combined group.” The group to which only physiological saline was administered without Herceptin is referred to as “placebo group.”

Series [3] has as its target human PAI-1 (Homo sapiens, UniProt P05121). Nature of the series: Measurement of PAI-1 inhibitory activity of compound group 1 (t-PA, S-2288 chromogenic substrate). To be noted: read-out: PAI-1 activity %.
Protocol: Subsequently, human-derived tissue plasminogen activator (t-PA) (manufactured by American Diagnostica, Inc. (USA); the same applies hereinafter) adjusted to 0.35 pmol/μL was added thereto, and the mixture was further incubated at 37° C. for 15 minutes.
Series [4] is described as follows: 2-week repeated-dose toxicity test using rat (Experimental Example 6). The series is classed as in vivo, Sprague-Dawley rats. The note with it: 200, 600 and 2,000 mg/kg/day oral, repeatedly for 2 weeks; male and female rats. The procedure:
Compound a was orally administered in 0 (0.5 w/v % carmellose sodium solution), 200, 600 and 2,000 mg/kg/day dosages to a male rat group and a female rat group each containing 5 Sprague-Dawley rats (Crl:CD(SD), 6-week old at the onset of administration) repeatedly for 2 weeks, and a toxicity test was conducted.

For series [5], the system named is hematopoietic stem cells. Nature of the series: Frequency and absolute number of hematopoietic stem cells after bone-marrow transplantation (Experimental Example 8 (1)). The series is classed as in vivo, mice. The note with it: 1 and 3 weeks after bone-marrow transplantation. On the procedure: In accordance with the procedure of Experimental Example 7 (1), bone marrow was transplanted, and tPA or compound a was administered in the same manner as in Experimental Example 7. Physiological saline was administered to a control group. 1 and 3 weeks after bone-marrow transplantation, 12 mice of each group were measured for the number of bone-marrow mononucleic cells (BM MNC), the frequency and absolute number of Lin-SLAM cells, and the frequency and absolute number of LSK-CD34 negative cells.

The test system of series [6] is hematopoietic stem cells. In words: Cell cycle (Ki-67, BrdU) and apoptosis (Annexin V) of bone-marrow cells 1 week after bone-marrow transplantation (Experimental Example 9). The series is classed as in vivo, mice. On the procedure:
In accordance with Experimental Example 7 (1), bone-marrow transplantation was conducted, and after the transplantation, physiological saline (control group), tPA (tPA-administered group), or compound a (compound a-administered group) was administered.
1 week after bone-marrow transplantation, the bone marrow was collected, and Ki-67 protein, which is a cell division marker, was immunostained with anti-Ki-67-FITC antibody (BD Bioscience) to analyze the cells in the cell-division cycle by FACSCalibur.
Subsequently, the number of Ki-67 positive cells in the cells of LSK fraction was examined to confirm that the proliferation of hematopoietic stem cells is promoted by compound a.
In addition, to more accurately detect the cells that moved to the S phase, 5-bromo-2-deoxyuridine (BrdU)-FITC (BD Pharmingen) was administered to the control group, tPA group, and compound a-administered group 1 week after bone-marrow transplantation, 3 hours before the collection of bone marrow. 6 mice were used for each group.
Because BrdU is a thymine derivative, BrdU, substituting for thymine, is incorporated into genomic DNA or the like during DNA replication. BrdU more specifically reflects the S phase than Ki-67 protein.
1 week after bone-marrow transplantation, bone marrow was collected from the control group, tPA group, and compound a-administered group (6 mice for each group), and Annexin V, which appears specifically in apoptosis, was detected with anti-Annexin V antibody immunostaining.

The subject of series [7] is CML cells. Nature of the series: Chronic myelogenous leukemia model mice, compound a alone, imatinib, combination (Experimental Example 16). In kind it is in vivo. To be noted: day 10 to day 16. The procedure:
as §1
Group 2: compound a group (compound a [100 mg/kg/day] was administered via gavage)
Group 3: imatinib group (imatinib [150 mg/kg/day] was administered via gavage)
Group 4: imatinib+compound a group (imatinib [150 mg/kg/day] and compound a [100 mg/kg/day] were administered via gavage)
10 days after (day 10) the day on which CML cells were intravenously inoculated (day 0), administration of test drugs to the groups was started. The placebo group, the compound a group, and the imatinib group were administered the respective test drugs once a day from day 10 to day 16 (7 doses in total). The imatinib+compound a group was administered imatinib once a day from day 10 to day 16 (7 doses in total), and also administered compound a once a day from day 10 to day 16 (7 doses in total).

Series [8] concerns hematopoietic stem cells. Nature of the series: Fibrinolytic pathway activation and bone-marrow regeneration after lethal radiation (9Gy) and bone-marrow transplantation, compound a versus recombinant tPA (Experimental Example 7).
Protocol: Within 4 hours, 1.0×10^6 bone-marrow mononucleic cells (BM MNC) were intravenously inoculated into retro-orbital plexus. Concurrently with transplantation, compound a (dosage 100 mg/kg) or recombinant tPA (dosage 100 mg/kg, Eisai Co., Ltd) were administered as a test compound via oral gavage, and the test compound was orally administered for 5 consecutive days (administered group). As a control test, instead of the test compound, physiological saline (vehicle) used for dissolving compound a was orally administered in the same manner (control group).
Blood was collected 2 and 7 days after bone-marrow transplantation, and the active PAI-1 level (ng/mL), active tissue-type plasminogen activator (active tPA), plasmin level (ng/mL), cKit ligand, and total MMP-9 (Matrix metalloprotein-9) in the plasma were measured.
[9] abbreviates: 2 and 7 days after transplantation, among control, tPA and compound a groups.
Where [10] appears, read: tPA group compared with control group, compound a group compared with tPA group.

Chain of human PAI-1 (P05121 24-402): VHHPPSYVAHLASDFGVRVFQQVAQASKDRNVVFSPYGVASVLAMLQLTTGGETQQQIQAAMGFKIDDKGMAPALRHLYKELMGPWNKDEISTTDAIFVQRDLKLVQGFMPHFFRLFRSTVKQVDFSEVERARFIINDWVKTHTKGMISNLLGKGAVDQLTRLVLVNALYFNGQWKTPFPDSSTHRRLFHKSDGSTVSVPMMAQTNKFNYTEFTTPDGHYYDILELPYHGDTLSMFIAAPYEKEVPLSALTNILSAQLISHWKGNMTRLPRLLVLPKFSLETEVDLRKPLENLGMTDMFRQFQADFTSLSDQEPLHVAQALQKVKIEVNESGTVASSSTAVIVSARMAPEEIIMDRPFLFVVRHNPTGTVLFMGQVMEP

For `O=C(Nc1ccc(Cl)cc1C(=O)O)c1cccc(-c2ccccc2)c1` [Example 4, 2-[(biphenyl-3-ylcarbonyl)amino]-5-chlorobenzoic acid], the “survival rate on day 40” value in series [1] (imatinib 150 mg/kg/day + compound c 10 mg/kg/day via gavage, day 8 to day 14) is recorded as 70%. The median survival period in series [1] (imatinib 150 mg/kg/day + compound c 10 mg/kg/day, placebo 15.5 days) came to 40 days. Besides, the “tumor volume versus other groups” value in series [2] is “significantly smaller”. In series [3], the activity at 20 µM amounted to 47.7% and the activity at 50 µM was determined as 7.6%.

As to `O=C(COCC(=O)N1CCN(C(c2ccccc2)c2ccccc2)CC1)Nc1ccc(Cl)cc1C(=O)[O-].[Na+]` [Example 30 (compound group 2), 2-(2-(2-(4-benzhydrylpiperazin-1-yl)-2-oxoethoxy)acetamido)-5-chlorobenzoic acid sodium salt], in series [4], the “change in general state, weight, food intake, urine test, hematological test, blood chemical test, pathological test” value is recorded as “no obvious change”. In series [5], the “LSK-CD34 negative cells (frequency and absolute number)” value is given as “markedly increased”; the “frequency and absolute number of Lin-SLAM cells” value is “markedly increased”. In addition, the “number of bone-marrow mononucleic cells” value in series [5] (compared with control group) is “significantly increased”. Further, the “proportion of cells that were induced apoptosis (Annexin V)” value in series [6] (compared with control group) is listed as “decrease”. In addition, the “cells in the S phase (BrdU incorporated into LSK cells)” value in series [6] (control group 18.1%) was 21.4%. In addition, the “Ki-67 positive, cells classified into the LSK fraction taken as 100%” value in series [6] (control group 43.3%) amounted to 63.9%. Further, the “cell count of cells at the S-G2-M phase (Ki-67) in bone-marrow mononucleic cells” value in series [6] (control group 44.2%) is given as 64.2%. For the same molecule, in series [6] (control group 55.8%), the “cell count of cells at the G0/G1 phase (Ki-67) in bone-marrow mononucleic cells” value is on record as 35.8%. In series [7] (compound a 100 mg/kg/day alone, all of the subject mice, as placebo), the survival entry is reported as “died during the period from day 10 to day 20”. Also, the “survival rate on day 50” value in series [7] (imatinib 150 mg/kg/day + compound a 100 mg/kg/day via gavage) worked out at 60%. In series [8] (setting [9]), the “level of cKitL in plasma” value is on record as “highest level”, the “level of plasmin in plasma” value was “highest level” and the “level of total MMP-9 in plasma” value was “highest level”. For the same molecule, the “level of active tPA in plasma” value in series [8] (7 days after transplantation, among control, tPA and compound a groups) is “highest level”. In addition, in series [8] (compound a or recombinant tPA 100 mg/kg, 5 consecutive days, 2 and 7 days after bone-marrow transplantation), the “expression of active PAI-1 in the plasma” value is “did not exhibit an expression of active PAI-1”. The “survival rate on day 28 from bone-marrow transplantation” value in series [8] (lethal radiation 9Gy, 100 mg/kg, 5 consecutive days, n=15, control group 20%) amounted to 70%. In addition, in series [8] (setting [10]), the “platelet count in the peripheral blood” value is recorded as “significantly increased” and the “white blood cell count in the peripheral blood” value was “significantly increased”.
